According to US20230099441A1, “HETEROCYCLIC COMPOUND, APPLICATION THEREOF, AND COMPOSITION CONTAINING SAME” (GenEros Biopharma Ltd., priority 2019, published 2023):

Test system: STAT5 Y694 phosphorylation
Test: Protein electrophoresis and blotting of STAT5 Y694 phosphorylation in Jurkat cells stimulated with human interferon beta
Format: cell-based
Details: for Inhibiting Ratio (0% for vehicle control): 1 hour pretreatment, 20 ng/ml human interferon beta 30 minutes, pSTAT5/GAPDH; for Example of Effect 1: Inhibiting Ability (Protein Electrophoresis and Blotting): observed pSTAT5 bands at 10 μM and 100 μM
Experimental: Example of Effect 1: Protein Electrophoresis and Blotting Experiment
Standard protein electrophoresis and chemiluminescence imaging equipment (Bio-Rad);
Protein lysate RIPA (Lianke Biological; Cat #WB020); Western blot transfer membrane PVDF (Millipore; Cat #IPVH00010);
Jurkat cells (ATCC American Standard Culture Center, TIB152) were cultured in a 6-well plate at a density of 1×10^6/ml with RPMI medium […] 10% fetal bovine serum in a humidified incubator at 37° C. and maintained at 5% carbon dioxide overnight. On the second day, the cells were pretreated with compounds of different concentrations (the mother liquor of the compound prepared by dimethyl sulfoxide was diluted in the medium at the required concentration) for 1 hour, and then stimulated with 20 ng/ml human interferon beta for 30 minutes, it was mixed thoroughly and then placed in an incubator at 37° C. environment. […] Then an appropriate volume of RIPA Lysis Solution was added, it was mixed well, and placed on ice for 1 hour, inverted and mixed several times in the middle. Then, the cell lysate was centrifuged at 12000 rpm at 4° C. for 10 minutes, and the supernatant was transferred to another test tube, aliquoted and stored at −20° C. until use.
An equal volume of protein lysate was mixed with an appropriate 6-fold protein loading buffer (Biyun Tian Biochemical Company P0015F), and the mixture was heated at 95 degrees for 10 minutes, after full denaturation, the protein sample was added to the polyacrylamide gel (self-made, raw material purchased from Soleibao Biotechnology Company A1010, 30% acrylamide solution), and electrophoresis was performed at the appropriate voltage for 1 hour, until the strips were fully separated. It was transferred to a polyvinylidene fluoride membrane according to standard procedures, and blocked with 5% skim milk for 1 hour, and the specified antibody was added, and it was diluted 1:1000 in 3% bovine serum albumin, and it was incubated overnight for four degrees. It was thoroughly rinsed, incubated with the secondary antibody, exposed to chemiluminescence and signals were collected. ImageJ software was used to quantify the obtained chemiluminescence results. The same area was selected, the gray values of STAT5 phosphorylation band and GAPDH band of each sample were analyzed, and the ratio of pSTAT5/GAPDH level was calculated. The value of the solvent-treated sample was 100%, and the remaining samples were converted into relative data in the same proportion, that is, the percentage corresponding to the solvent sample. […] The solvent control group was the same as the test compound group except that DMSO was used instead of the DMSO solution of the test compound. N1 (Pimozide) was a specific positive control.

SMILES | Inhibiting Ratio (0% for vehicle control) (1 μM) | Inhibiting Ratio (0% for vehicle control) (10 μM) | Inhibiting Ratio (0% for vehicle control) (100 μM) | Example of Effect 1: Inhibiting Ability (Protein Electrophoresis and Blotting)
O=c1[nH]c2ccccc2n1C1CCN(CCCC(c2ccc(F)cc2)c2ccc(F)cc2)CC1 [Example N1, Pimozide, reference compound] | −0.6% | 5.9% | 95.4% | +
CCC(=O)N1CCC(n2c(=O)oc3ccccc32)CC1 [Example P1, 3-(1-propionylpiperidin-4-yl)benzo[d]oxazole-2(3H)-one] |  |  |  | −
O=C(Cc1ccncc1)N1CCC(n2c(=O)oc3ccccc32)CC1 [Example P3, 3-(1-(2-(pyridin-4-yl)acetyl)piperidin-4-yl)benzo[d]oxazole-2(3H)-one] |  |  |  | −
O=C(Cc1ccc(C(F)(F)F)cc1)N1CCC(n2c(=O)oc3ccccc32)CC1 [Example P8, 3-(1-(2-(4-(trifluoromethyl)phenyl)acetyl)piperidin-4-yl)benzo[d]oxazole-2(3H)-one] |  |  |  | −
O=c1oc2ccccc2n1-c1ccn2c(=O)cc(Cc3ccc(F)cc3)cc2c1 [Example P9, 3-(2-(4-fluorobenzyl)-4-oxo-4H-quinazine-8-yl)benzo[d]oxazole-2(3H)-one] |  |  |  | −
O=C(CC(F)(F)F)N1CCC(n2c(=O)[nH]c3ccccc32)CC1 [Example X2, 1-(1-(3,3,3-trifluoropropionyl)piperidin-4-yl)-1H-benzo[d]imidazole-2(3H)-one] |  |  |  | −
O=C(Cc1ccncc1)N1CCC(n2c(=O)[nH]c3ccccc32)CC1 [Example X3, 1-(1-(2-(pyridin-4-yl)acetyl)piperidin-4-yl)-1H-benzo[d]imidazole-2(3H)-one] | 17.4% | 4.7% | 87.5% | −
O=C(Cc1ccccc1)N1CCC(n2c(=O)[nH]c3ccccc32)CC1 [Example X4, 1-(1-(2-phenylacetyl)piperidin-4-yl)-1H-benzo[d]imidazole-2(3H)-one] | 21.2% | 5.3% | 87.8% | −
O=C(O)c1ccc(CC(=O)N2CCC(n3c(=O)[nH]c4ccccc43)CC2)cc1 [Example X6, 4-(2-oxo-2-(4-(2-oxo-2,3-dihydro-1H-benzo[d]imidazol-1-yl)piperidine-1-yl)ethyl)benzoic acid] |  |  |  | −
Cc1ccc(CC(=O)N2CCC(n3c(=O)[nH]c4ccccc43)CC2)cc1 [Example X7, 1-(1-(2-(p-tolyl)acetyl)piperidin-4-yl)-1H-benzo[d]imidazole-2(3H)-one] | −27.9% | −13.6% | 88.5% | −
O=c1[nH]c2ccccc2n1-c1ccn2c(=O)cc(Cc3ccc(F)cc3)cc2c1 [Example X9, 2-(4-fluorobenzyl)-8-(2-oxo-2,3-dihydro-1H-benzo[d]imidazol-1-yl)-4H-quinazine-4-one] | 6.0% | 44.3% | 100.0% | +
COc1cccc2c1[nH]c(=O)n2C1CCN(C(=O)Cc2ccc(C(F)(F)F)cc2)CC1 [GEN1-003, 4-methoxy-1-(1-(2-(4-(trifluoromethyl)phenyl)acetyl)piperidin-4-yl)-1H-benzo[d]imidazole-2(3H)-one] | −10.8% | 22.2% | 94.1% | +
